“And” between values parts separate entries of the source, which are not always exact repeats. Equal entries are not always repeated. “Also recorded” adds a separate entry of the source. Where two headings read alike, the source gives them in different places.
Columns and labels:
[1] = system: APP-expressing TgCRND8 mice; experiment: Aβ plaque burden by immunohistochemistry and image analysis in TgCRND8 mice; type: in vivo, mouse; settings: 8 mg/kg i.p. twice a week for 8 weeks, vs vehicle
Experimental: Animals. All animal procedures were approved by the office of the district president and the institutional animal care and use committee for the University of Munster. We used the TgCRND8 mouse line (courtesy of David Westaway, University of Toronto, Toronto, Ontario, Canada). TgCRND8 mice encode a double mutant form of amyloid precursor protein 695 (KM670/671 NL+V717F) under the control of the PrP gene promoter (Chishti et al., 2001). Thioflavine S-positive Aβ amyloid deposits are present at 3 months, with dense-cored plaques and neuritic pathology evident from 5 months of age.
(§1) Drug treatment of TgCRND8 mice. APP transgenic TgCRND8 mice at 4 months old received twice a week an i.p. injection of 200 μl containing 200 μg CNI-1493 (8 mg/kg) for 8 weeks. There were four animals in each treatment group. Animals were housed singly in individual cages. At the end of the experimental period, animals were killed by decapitation. The brain was dissected and the hemispheres separated along the midline. One hemisphere was fixed in 4% buffered formaldehyde for 24 h followed by dehydration and paraffin embedding. The other hemisphere was immediately snap-frozen in liquid nitrogen and kept at −80° C.
Immunohistochemistry. Three pairs of 2 μm sagittal brain sections of each transgenic animal were stained for Aβ immunoreactivity. The pairs (10 μm distance) were situated 100 μm, 200 μm and 300 μm lateral from the mid-sagittal fissure. All slices were pretreated with formic acid and automatically stained in a TechMate Instrument (Dako Cytomation, Hamburg, Germany) with 6F/3D anti-Aβ monoclonal antibody to residues 8-17 (Dako, 1:100). For further steps, the Dako StreptABC complex-horseradish peroxidase conjugated “Duet” anti mouse/rabbit antibody kit was used and developed with 3, 3′-diaminobenzidine (DAB) as chromogen. Counterstaining was performed with hematoxylin. All slides were stained in two consecutive procedures making sure that brains of both experimental groups were equally distributed in both procedures.
Image analysis. To quantify Aβ plaque burden, cortices and hippocampi of all stained sections were digitalized by a ColorView II, 3, 3 Mega Pixel CCD camera under constant light and filter settings. Color images were converted to greyscale to obtain best contrast between positive immunoreactivity and background. A constant threshold was chosen for all images to detect immunoreactive staining.
Morphometric measurements were performed by image analysis software “SIS analysis Auto Software 3.2” (Soft Imaging System GmbH, http://www.soft-imaging.org/). Total number and surface of plaques was related to the total area analyzed.

F4/80 antigen = experiment: Western blot of F4/80 (microglial activation) in brain of treated TgCRND8 mice; type: in vivo, mouse; settings: 8 mg/kg i.p. twice a week for 8 weeks, vs control
Experimental: as §1
Biochemical analysis. Half of the brain was weighed and homogenized in an appropriate volume of T-PER (Perbio, Bonn, Germany) in accordance to the guidelines of the manufacturer. Lysate protein concentration was measured by BCA kit (Perbio). 15-60 μg protein per sample was loaded onto a pre-cast NuPAGE Novex 4-12% Bis-Tris gel and separated using the Novex electrophoresis system (Invitrogen, Karsruhe, Germany). Subsequently, the proteins were transferred onto nitrocellulose membranes (Invitrogen) using the XCell II™ blot (Invitrogen). The immobilized proteins were visualized using MemCode reversible protein staining kit (Perbio). […] Equal protein loading of all membranes was assessed by reprobing with monoclonal antibodies against GAPDH (Acris, Hiddenhausen, Germany).

[2] = system: N2a cells expressing wild type APP695; experiment: APP processing analysis in N2a cells; type: cell-based; settings: 24 h treatment
Experimental: APP processing analysis in N2a cells. APP695-transfected N2a cells (Marambaud et al., 2005) were grown in 1:1 DMEM/Opti-MEM supplemented with 5% FBS, penicillin and streptomycin, and 0.2 mg/ml G418. Cells were treated at confluency for 24 h with the indicated concentrations of CNI-1493. Medium was then changed and treatments were continued for another 2 h to allow Aβ secretion. Twenty microliters of conditioned medium were electrophoresed on 16.5% Tris-Tricine gels and transferred onto […] nitrocellulose membranes. Membranes were then microwaved for 5 min in PBS, blocked in 5% fat-free milk in TBS, and incubated with 6E10 (Signet, 1:1000 in Pierce SuperBlock) overnight at 4° C. Cells were washed with PBS and solubilized in ice-cold HEPES buffer (25 mM HEPES, pH 7.4, 150 mM NaCl, 1× Complete protease inhibitor cocktail, Roche) containing 1% SDS. Ten micrograms of extracts were analyzed by western blot with 6E10, R1 (anti-APP C-terminal domain, reference 21), and LN27 (anti-APP1-200, Zymed).

Aβ42 [3] = molecular target: T1, Aβ42 (Homo sapiens, UniProt P05067); experiment: Anti-oligomer antibody ELISA, Aβ42
T1 construct: less abundant 42-amino acid form (Aβ42)
T1 sequence (P05067 672-713 limits assumed): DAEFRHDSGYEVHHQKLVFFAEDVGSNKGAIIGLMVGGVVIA

Aβ40 = molecular target: T2, Aβ40 (Homo sapiens, UniProt P05067); experiment: Anti-oligomer antibody ELISA, Aβ40
T2 construct: The 40-amino acid form (Aβ340) is the most abundantly produced Aβ peptide
T2 sequence (P05067 672-711 limits assumed): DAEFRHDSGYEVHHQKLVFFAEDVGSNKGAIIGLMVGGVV

synuclein = synuclein (Homo sapiens, UniProt P37840); experiment: Anti-oligomer antibody ELISA, synuclein
Experimental: The ability of CNI-1493 to prevent aggregation of synuclein was tested by determining the recognition of synuclein by an anti-oligomer antibody (gift of Dr. C. Glabe, University of California at Irvine) in an ELISA assay.

Aβ42 [4] = molecular target: T1, Aβ42; experiment: Aβ oligomer ELISA with various concentrations of CNI-1493; settings: Aβ42 with increasing concentrations of CNI-1493
Text: Aβ42 was combined with various concentrations of CNI-1493 and Aβ oligomers were quantified by ELISA using Aβ oligomer-specific antibodies.

Aβ42 [5] = molecular target: T1, Aβ42; experiment: Electron microscopy of Aβ42 oligomer fibrilization; settings: Aβ42 oligomers with vs without CNI-1493
primary neurons = experiment: Aβ toxicity in primary neurons; type: cell-based
Text: To determine whether the CNI-1493-treated form of Aβ is toxic, Aβ that had been pretreated with, or without, CNI-1493 was combined with SY5Y neuroblastoma cells. Toxicity was monitored using MTT (thiazolyl blue) reduction (mitochondrial succinate dehydrogenase activity) and lactate dehydrogenase activity (LDH). The MTT and LDH assays correlated with each other. […] Additionally, the protective effect of CNI-1493 was examined in similar assays using primary neurons.

SMILES | reduction of plaque area (square micrometers per area of interest in square mm) ([1]; cortex) [%] | reduction of plaque number (plaques per area of interest in square mm) ([1]; cortex) [%] | reduction of plaque number (plaques per area of interest in square mm) ([1]; hippocampus) [%] | reduction of plaque area (square micrometers per area of interest in square mm) ([1]; hippocampus, 8 mg/kg) | microglial activation, F4/80 expression in brain (western blot) (F4/80 antigen) | full length APP production (LN27) [2] | β- or γ-secretase cleavage of APP (C99, C83 fragments) [2] | total Aβ secreted into the medium (western blot, 6E10) ([2]; then medium change and continued treatment) | recognition by anti-oligomer antibody (aggregation) (Aβ42 [3]) | recognition by anti-oligomer antibody (aggregation) (Aβ42 [3]; listed as CNI-1492) | recognition by anti-oligomer antibody (aggregation) (Aβ40) | recognition by anti-oligomer antibody (aggregation) (Aβ40; listed as CNI-1492) | recognition by anti-oligomer antibody (aggregation) (synuclein) | recognition by anti-oligomer antibody (aggregation) (synuclein; listed as CNI-1492) | Aβ oligomers by ELISA (final OD) (Aβ42 [4]) | formation of fibrillar aggregates (electron microscopy) (Aβ42 [5]) | protection from Aβ toxicity (primary neurons)
CC(=NNC(=N)N)c1cc(NC(=O)CCCCCCCCC(=O)Nc2cc(C(C)=NNC(=N)N)cc(C(C)=NNC(=N)N)c2)cc(C(C)=NNC(=N)N)c1.Cl.Cl.Cl.Cl [CNI-1493, N,N′-bis(3,5-diacetylphenyl)decanediamide tetrakis(amidinohydrazone) tetrahydrochloride] | 70 | 57 | 60 | 87% and 86% | significant reduction in microglial activation; also recorded: decrease of F4/80 signal; also recorded: decline of F4/80 in all CNI-1493 animals | not accompanied by reduced levels of APP production | no effect | profound dose-dependent decrease of total Aβ accumulation; also recorded: dose-dependent, dramatic reduction; also recorded: profound dose-dependent decrease of total Aβ secretion | prevents aggregation | reduced recognition by the antibody | prevents aggregation | reduced recognition by the antibody | prevents aggregation | reduced recognition by the antibody | reduced the final OD in the ELISA; also recorded: reduction in recognition of Aβ oligomers | do not form the fibrillar aggregates; also recorded: inhibited Aβ42 oligomer fibrilization | protected the neurons from Aβ toxicity
N=C(N)c1ccc(OCCCCCOc2ccc(C(=N)N)cc2)cc1 [pentamidine, reference compound] |  |  |  |  |  |  |  |  | reduced recognition by the antibody |  | reduced recognition by the antibody |  | reduced recognition by the antibody |  |  |  | 

— US20180098950A1, “INHIBITORS OF ABETA AND SYNUCLEIN AGGREGATION” (The Feinstein Institute For Medical Research, priority 2006, published 2018)
